Among the test systems are 786-0; ACHN; DLD-1; DMS-114; HCT-116; KM-20L2; LOX IMVI; M19-MEL; OVCAR-3; SF-268; SR; TK-10; UO-31; XF498; SNB-78; MCF7; NCI/ADR-RES.
Common to all, as to assay: NCI-60 cell line screen, 48 h

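In this assay, cells in 96-well plates receive the compound at five concentrations for 48 hours. Endpoints are linearly interpolated between the surrounding concentrations. GI50: concentration for 50% inhibition of growth.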 Activity calls are given as the source filed them. No stated cut-off is given here; in the data, active = GI50 up to about 1.1 µM and inactive = higher. A value given as a limit tells only on which side of the number the result lay.

`C=C1C2=C(CCCC2)C(=O)OC12CCCCC2`: the GI50 in the experiment with 786-0 was > 100 µM (inactive); with ACHN, 40.9 µM (inactive); with DLD-1 it was 92.7 µM (inactive); in the experiment on DMS-114 it was 29.5 µM (inactive); in the experiment with HCT-116 it was 47.1 µM (inactive); in the experiment with KM-20L2, > 100 µM (inactive). Besides, the GI50 in the experiment with LOX IMVI is 66.4 µM (inactive); in the experiment on M19-MEL, 46.5 µM (inactive); with OVCAR-3, 43.5 µM (inactive); in the experiment with SF-268 it was 86.1 µM (inactive); in the experiment on SR, 38.9 µM (inactive); with TK-10, > 100 µM (inactive). The GI50 with UO-31 is 35.1 µM (inactive); in the experiment with XF498, 97.5 µM (inactive).
As for `CC(=O)Oc1ccccc1C(=O)C1c2cccc(O)c2C(=O)c2c(O)cccc21`, the GI50 was 1.67 µM (inactive) in the experiment with 786-0; 0.771 µM (active) with ACHN; 1.23 µM (inactive) with DLD-1; 0.366 µM (active) with DMS-114; 0.897 µM (active) in the experiment on HCT-116; 2.4 µM (inactive) in the experiment on KM-20L2. The GI50 is 1.62 µM (inactive) in the experiment with LOX IMVI; 1.01 µM (active) in the experiment on M19-MEL; 0.593 µM (active) in the experiment on OVCAR-3; 0.927 µM (active) in the experiment on SF-268; 1.27 µM (inactive) in the experiment on SNB-78; 0.419 µM (active) in the experiment with SR. Further, the GI50 in the experiment with TK-10 was 3.65 µM (inactive); with UO-31, 0.741 µM (active); in the experiment on XF498 it was 0.561 µM (active).
Consider `c1ccc2c(NCCCCCCCCNc3cccc4ccccc34)cccc2c1`, for which the GI50 in the experiment with 786-0 was 23.4 µM (inactive); in the experiment with ACHN it was 30 µM (inactive); with DLD-1, 34.2 µM (inactive); with DMS-114, 25.6 µM (inactive); in the experiment on HCT-116, 19.8 µM (inactive); in the experiment with KM-20L2, 25.2 µM (inactive). Also, the GI50 is > 10 µM (inactive) in the experiment with M19-MEL; 34 µM (inactive) in the experiment on OVCAR-3; 65 µM (inactive) in the experiment on SF-268; 46.8 µM (inactive) in the experiment on SNB-78; 24.3 µM (inactive) with TK-10; 26.2 µM (inactive) in the experiment with UO-31. Besides, the GI50 with XF498 was 78.9 µM (inactive).
Turning to `Cc1ccc(SSCCCCCS(=O)O)cc1`, the GI50 is 57.7 µM (inactive) with ACHN; 33.9 µM (inactive) in the experiment on DLD-1; 21 µM (inactive) in the experiment on DMS-114; 14.6 µM (inactive) with HCT-116; 16.8 µM (inactive) in the experiment on LOX IMVI; 37.6 µM (inactive) in the experiment on M19-MEL. The GI50 in the experiment with OVCAR-3 was 22.2 µM (inactive); in the experiment with SF-268, 14.6 µM (inactive); with SNB-78, 25.4 µM (inactive); in the experiment on SR, 4.62 µM (inactive); with TK-10, 26.9 µM (inactive); with UO-31, 19.9 µM (inactive). In addition, the GI50 with XF498 is 18.6 µM (inactive).
With `CC1(Cl)CC2C(CC1Sc1nnnn1-c1ccccc1)C2(C)C` (stereo not drawn), the GI50 was 75.5 µM (inactive) with ACHN; > 100 µM (inactive) in the experiment with DLD-1; 45.9 µM (inactive) with DMS-114; 69.8 µM (inactive) in the experiment with HCT-116; 95.5 µM (inactive) in the experiment on KM-20L2; > 100 µM (inactive) with LOX IMVI. Besides, the GI50 with M19-MEL is > 100 µM (inactive); in the experiment on OVCAR-3, 38.7 µM (inactive); in the experiment on SF-268 it was > 100 µM (inactive); in the experiment with SNB-78, 92.7 µM (inactive); in the experiment with SR, 29.6 µM (inactive); in the experiment on TK-10, > 100 µM (inactive). Moreover, the GI50 in the experiment with UO-31 is 37.5 µM (inactive).
With `COc1c(O)c(C=O)c2c(O)c(-c3c(C)cc4c(C(C)C)c(OC)c(O)c(C=O)c4c3O)c(C)cc2c1C(C)C` [6,6'-METHOXYGOSSYPOL], the GI50 with ACHN is 2.43 µM (inactive); with DLD-1, 4.38 µM (inactive); with DMS-114, 3.08 µM (inactive); in the experiment with HCT-116, 2.61 µM (inactive); in the experiment on KM-20L2 it was 6.01 µM (inactive); with M19-MEL it was 3.65 µM (inactive). Also, the GI50 in the experiment with OVCAR-3 is 3.37 µM (inactive); in the experiment on SF-268, 5.71 µM (inactive); with SNB-78, 25.3 µM (inactive); in the experiment with SR, 4.4 µM (inactive); in the experiment with TK-10, 6.71 µM (inactive); in the experiment with UO-31, 3.3 µM (inactive).
As for `O=C(CC1Sc2ccccc2NC1=O)Nc1ccccc1[N+](=O)[O-]` (stereo not drawn), the GI50 with ACHN, in the experiment with DLD-1, with HCT-116, in the experiment on KM-20L2, with LOX IMVI and in the experiment on M19-MEL was > 100 µM (inactive) each time. Moreover, the GI50 was > 100 µM (inactive) with OVCAR-3; > 100 µM (inactive) with SF-268; > 100 µM (inactive) in the experiment with SNB-78; 12.2 µM (inactive) in the experiment on SR; > 100 µM (inactive) in the experiment with TK-10; > 100 µM (inactive) in the experiment with UO-31. For the same compound, the GI50 with XF498 was > 100 µM (inactive).
Turning to `Cc1ccc(N2Cc3c(ccc4ccccc34)OP2(=S)N2CCCC2)cc1` (stereo not drawn), the GI50 in the experiment with DLD-1, in the experiment on HCT-116, in the experiment on KM-20L2, with LOX IMVI, in the experiment with M19-MEL and in the experiment with MCF7 was > 100 µM (inactive) each time. Besides, the GI50 was > 100 µM (inactive) with NCI/ADR-RES; > 40.1 µM (inactive) with OVCAR-3; > 100 µM (inactive) in the experiment with SF-268; > 100 µM (inactive) in the experiment with SNB-78; 85.7 µM (inactive) in the experiment on UO-31; > 100 µM (inactive) in the experiment on XF498.
In the case of `O=C1C(Cl)N(c2ccc([N+](=O)[O-])cc2)C1c1c[nH]c2ccccc12` (stereo not drawn), the GI50 in the experiment on DLD-1 is 38.1 µM (inactive); in the experiment with DMS-114 it was 38 µM (inactive); in the experiment with HCT-116, 55.5 µM (inactive); in the experiment with KM-20L2 it was 41.2 µM (inactive); with M19-MEL, > 100 µM (inactive); with OVCAR-3, 47.8 µM (inactive). Moreover, the GI50 in the experiment on SF-268 was > 100 µM (inactive); with SR, 19.5 µM (inactive); in the experiment on TK-10 it was > 100 µM (inactive); with UO-31, 38.3 µM (inactive); in the experiment on XF498, > 100 µM (inactive).
Take `O=NN(CC1(O)OCC(O)C(O)C1O)C(Cc1c[nH]c2ccccc12)C(=O)O` (stereo not drawn): the GI50 in the experiment with 786-0, in the experiment on ACHN, with DLD-1, in the experiment on DMS-114, with HCT-116 and in the experiment with KM-20L2 was > 100 µM (inactive) in each case. For the same compound, the GI50 with LOX IMVI was > 100 µM (inactive); in the experiment with M19-MEL, > 100 µM (inactive); in the experiment with OVCAR-3, > 100 µM (inactive); with SNB-78, > 100 µM (inactive); with TK-10, > 100 µM (inactive); in the experiment with UO-31 it was > 10 µM (inactive). Further, the GI50 in the experiment with XF498 was > 100 µM (inactive).
For the compound `CCN(CC)Cc1cc(Nc2c3ccccc3nc3c2[nH]c2ccccc23)ccc1O`, the GI50 with 786-0 was 1.13 µM (inactive); with ACHN, 0.875 µM (active); in the experiment with DLD-1, 1.25 µM (inactive); in the experiment with DMS-114, 1.64 µM (inactive); in the experiment on HCT-116 it was 0.345 µM (active); with KM-20L2, 0.867 µM (active). Further, the GI50 is 1.22 µM (inactive) in the experiment with LOX IMVI; 1.63 µM (inactive) in the experiment on M19-MEL; 1.42 µM (inactive) with SF-268; 2 µM (inactive) in the experiment on SNB-78; 0.337 µM (active) in the experiment on SR; 3.61 µM (inactive) in the experiment with TK-10. The GI50 was 1.52 µM (inactive) in the experiment on UO-31 and 1.76 µM (inactive) in the experiment on XF498.

Source of the values: ChEMBL document CHEMBL1201862, “PubChem BioAssay data set” (2004).
